One test relates to Pellicle Surface. As to conditions: read-out: MB50; biotinylated peptide, 30 min in vivo pellicle on enamel, from Scatchard plots. The method, then:
The pellicle coated enamel substrates were removed from the wax backing and placed in well plates with the pellicle surface exposed as in Example 5. […] The blocking buffer was removed by aspirating the liquid out of each well. […] The samples were incubated for 30 min with slow shaking at 37° C. The non-binding peptide was removed by washing 6 times with PBST. […] The conjugate solution was removed and was washed 4 times with PBST.
Each enamel substrate was removed from the well and washed again in a 15-mL test tube with 10 mL of PBST. Each enamel substrate was then mounted in a clean well plate with only the enamel surface exposed.

Test [1] concerns pellicle coated enamel substrates. The settings on record: 20 μM biotinylated peptide, streptavidin-HRP, normalized to DenP03, three replicates. The method, then:
A total of 20 synthetic peptides were manufactured using sequences obtained from Table 6. Peptides were obtained from SynBioSci Corp. (Livermore, Calif.) and included an additional sequence (SSRP; SEQ ID NO: 118) at the N-terminus and biotin labeled lysine at the C-terminus.
Enamel substrates were cut into approximately 7 mm squares and mounted on wax mounting for incubation in the mouth for 30 min to form a pellicle coated surface. The pellicle coated enamel substrates were removed from the wax backing and placed in well plates with the pellicle surface exposed as in Example 5. Each pellicle coated substrate was incubated for 1 h at room temperature (˜22° C.) with 1 mL of blocking buffer, consisting of 1 mg/mL BSA in PBST (Pierce BUPH™ #28372 with 0.1% TWEEN® 20). The blocking buffer was removed by aspirating the liquid out of each well. The tube was rinsed 2 times with wash buffer consisting of PBST. The wells were filled with 500 μL of 20 μM peptide solution which was prepared by diluting in blocking buffer. The samples were incubated for 30 min with slow shaking at 37° C. The non-binding peptide was removed by washing 6 times with PBST. Then, 500 μL of horseradish peroxidase/streptavidin conjugate (Pierce #22127), diluted 1:2000 in PBST, was added and incubated for 1 h at room temperature (˜22° C.). The conjugate solution was removed and was washed 4 times with PBST.
Each enamel substrate was removed from the well and washed again in a 15-mL test tube with 10 mL of PBST. Each enamel substrate was then mounted in a clean well plate with only the enamel surface exposed. A 1:1 solution of TMB substrate and H2O2 (200 μL) was added to each well and the color was allowed to develop for between 10 to 20 min, typically for 15 min, at room temperature (˜22° C.). Then, 100 μL of solution from each well was transferred to a 96 well reading plate containing stop solution (100 μL of 2 M H2SO4) in each well. The A450 was measured using a microplate spectrophotometer (Molecular Devices, Sunnyvale, Calif.). […] Each sequence was tested with three replicate enamel coated pellicle substrates.

A short description of test [2]: Phage ELISA, bovine polished enamel-binding assay. As to conditions: over 10^10 pfu phage, A450. The method, then:
A total of 11 selected phage candidates (Example 3) was used in a phage ELISA experiment. Purified phage lysates were used for binding to the enamel blocks using an anti-M13 phage antibody conjugated to horseradish-peroxidase, followed by the addition of chromogenic agent TMB. The plates were read at A450 nm.
For each phage candidate to be tested, the polished and unpolished enamel blocks were incubated for 1 h at room temperature with 200 μL of blocking buffer, consisting of 2% non-fat dry milk (Schleicher & Schuell, Inc.) in TBS. […] The tube was rinsed 6 times with wash buffer consisting of TBST-0.05%. The wells were filled with 200 μL of TBST-0.5% containing 1 mg/mL BSA and then 10 μL (over 10^10 pfu) of purified phage stock was added. The samples were incubated at room temperature for 60 min with slow shaking. The non-binding phage was removed by washing 6 times with TBST-0.5%. […] The conjugate solution was removed and was washed 6 times with TBST-0.5%. […] BoEn P means bovine polished enamel and BoEn means bovine enamel.

Test [3] in a line: Peptide-mediated deposition of Co-NTA beads on bovine enamel, SEM. Type of test: binding. As to conditions: 20 μM peptide; for Particles per um^2 at 5000X: then Co-NTA TALON beads, SEM at 5000X. The text has this: Bovine enamel incisors were obtained from SE Dental (Baton Rouge, La.). Teeth were sectioned and cut into enamel slabs approx. 5 mm on each side using a DREMEL® rotary (Robert Bosch LLC, Farmington Hills, Mich.) saw with a diamond blade. The enamel slabs were cleaned and embedded in a well plate contained molding material so as to only expose the enamel surface in the well.
Polystyrene beads with cobalt-NTA coating (DYNABEADS® TALON®) were obtained from Invitrogen (item#101.02D) as a slurry of 40 mg/mL. The slurry (50 μL; 2 mg beads) was resuspended and washed with 700 μL of binding buffer (50 mM sodium phosphate, pH 8.0, 300 mM NaCI, 0.01% TWEEN® 20) in preparation for His6 binding.
Peptides were dissolved in phosphate buffered saline (Pierce, pH 7.2) at a concentration of 20 μM. Peptide solution (500 μL) was placed in each well containing an enamel slab. Enamel slabs exposed to only PBS in this step were used as a control. Samples were incubated with peptide solution with gentle agitation for 30 min. The peptide solution and PBS were removed from the well plate and each well was rinsed 3 times with repeated additions of PBS. TALON® beads (50 μL) were added to each well and incubated with gentle agitation for 30 min. The TALON® solution was removed and the samples were washed three times with the same binding buffer.
Each enamel sample was removed from the well plate and rinsed again with buffer. […] The enamel slabs were further examined by Electron Microscopy (Hitachi TM-1000 Tabletop SEM Microscope) at 1000×, 2500× and 5000× magnification. […] Little to no beads were found on the no peptide control. […]

The subject of test [4] is pellicle-coated enamel substrates. As to the kind of experiment: Tooth whitening with sequentially applied peptide and silica-coated TiO2, colour measurement. Further details: species or system bovine. The settings on record: 20 μM peptide 30 min, then 1% silica-coated TiO2 30 min; three replicate teeth. The method, then:
Silica-coated rutile titanium dioxide (Luce II WW) was obtained from US Cosmetics Corp. (Dayville, Conn.). A 12 wt % solution of the pigment was prepared with Millipore water. The solution was dispersed by horn sonication using a Branson Sonifier 150 at 10 W. The solution was sonicated in an ice bath for 6 min total, with 2 min sonication intervals. A working solution of 1 wt % in 10 mM sodium phosphate buffer at pH7.2 was made for application to peptide coated enamel. A 0.01% solution of this dispersion diluted in the same buffer was measured on a Malvern Zetasizer Nano dynamic light scattering instrument.
Bovine enamel incisors were obtained from SE Dental (Baton Rouge, La.). Teeth were sectioned and cut into enamel slabs approx. 7 mm on each side using a DREMEL® saw with a diamond blade. The enamel slabs were cleaned and lightly polished to remove surface debris. The enamel was pretreated with a mixture of coffee and tea in order to stain to a color similar to human stained teeth. Each enamel block was then mounted on wax mounting and sterilized with ethylene oxide. […] The mounted enamel blocks were brushed with a toothbrush and a 1:2 dilution of COLGATE® MAXFRESH® toothpaste (Colgate-Palmolive Co., New York, N.Y.) and then reinserted into the mouth for 1 minute. […] Each pellicle coated enamel slab was measured for color using a Konica-Minolta 2600d integrating sphere spectrophotometer.
Peptides listed in Table 15 were dissolved into pH 7.2 PBS buffer at a concentration of 20 μM. Three replicate teeth were used for each experimental condition. Each tooth was incubated with peptide solution for 30 min or buffer alone as a control. The enamel blocks were removed from the peptide solution and rinsed with PBS buffer. The enamel blocks were then incubated in the 1% solution of silica-coated TiO2 for 30 min. The enamel blocks were removed, rinsed with 10 mM phosphate buffer and blotted dry. Each substrate was measured for color (L, a*, b*, C*, h) values. The total color difference, Delta E*ab and the Metric Hue Difference, Delta H*ab, for the whitening process were calculated using equations (1) and (2) below: Delta E*ab=((L*1−L*2)^2+(a*1−a*2)^2+(b*1−b*2)^2)^1/2 (1) Delta H*ab=(2(C*1C*2−a*1a*2−b*1b*2))^1/2 (2) where L*=the lightness variable, a* and b* are the chromaticity coordinates and C* is the chroma of CIELAB colorspace as defined by the International Commission of Illumination (CIE) and described in ASTM D2244-09b and subscript 1 denotes the initial color value and subscript 2 denotes the final color value.

Where no end group is shown, it is not given here. The star is where a group is joined. Biotin = O=C1N[C@H]2[C@H](CS[C@H]2CCCCC(=O)*)N1

The text below walks through data of patent US8354381B2, “Peptide compositions for oral care systems” (E I du Pont de Nemours and Company, priority 2009, dated 2013).

Regarding “SSRPHKNENIMQYNVNDRWHITPAK(Biotin) [DenP32-A]”, the EC50 in the test on Pellicle Surface was found to be 25 µM. For the same molecule, the “O.D.450 (normalized)” value in test [1] is given as 1.135.
“GYCLRGDEPAVCSG (Synthetic oral-surface binding peptide) [BoEn P3]” registered an O.D.450 in test [2] of 0.665.
On the same count and under the same terms, as for “NTCQPTKNATPCSA (Synthetic oral-surface binding peptide) [BoEn P6]”, the figure is 0.83; as for “EPPTRTRVNNHTVTVQAQQH (Synthetic oral-surface binding peptide) [BoEn P2]”, 0.641; as for “THNMSHFPPSGHPKRTAT (Synthetic oral-surface binding peptide) [BoEn P8]”, 2.02.
In the case of “SSRPTTYHYKNIYQESYQQRNPAVK(Biotin) [DenP3-A]”, in the test with Pellicle Surface, the EC50 amounted to 28 µM. In addition, the “O.D.450 (normalized)” value in test [1] amounted to 1.000.
Consider “PHMASMTGGQQMGSYSETPNDQKPNPHYKVSGTKGPEEAAKKEEAAKKPAYSETPNDQKPNPHYKVSGTKGSGGGGSGSGGGGSLNSMSDKHHGHQNTATRNQHGGGLNSMSDKHHGHQNTATRNQHGGHHHHHH [DE008]”, for which, in test [3], the “Particles per um^2 at 5000X” value turned out to be 0.31 Particles per um^2.
“NFCETQLDLSVCTV (Synthetic oral-surface binding peptide) [BoEn P5]” showed an O.D.450 in test [2] of 0.797.

B1: PGSGGGGSPYSETPNDQKPNPHYKVSGTKGPEPEPEPEPIPEPPKEAPVVIEKPKPKPKPKPKPPAYSETPNDQKPNPHYKVSGTKGPGGHHHHHH (peptide)
chain: PGSGGGGSPYSETPNDQKPNPHYKVSGTKGPEPEPEPEPIPEPPKEAPVVIEKPKPKPKPKPKPPAYSETPNDQKPNPHYKVSGTKGPGGHHHHHH
modifications: Synthetic peptide composition
Consider B1, for which the “Particles per um^2 at 5000X” value in test [3] was determined as 0.39 Particles per um^2.

B2: PSSSRPTTYHYKNIYQESYQQRNPAVGPEEAAKKEEAAKKPASSRPTTYHYKNIYQESYQQRNPAVGPHHHHHH (peptide)
chain: PSSSRPTTYHYKNIYQESYQQRNPAVGPEEAAKKEEAAKKPASSRPTTYHYKNIYQESYQQRNPAVGPHHHHHH
For B2, in test [4], the “Delta E*ab Avg” value amounted to 6.78 and the “Delta H*ab Avg” value amounted to 1.60.

B3: PGSGGGGSPYSETPNDQKPNPHYKVSGTKGPEEAAKKEEAAKKPAYSETPNDQKPNPHYKVSGTKGPGGHHHHHH (peptide)
chain: PGSGGGGSPYSETPNDQKPNPHYKVSGTKGPEEAAKKEEAAKKPAYSETPNDQKPNPHYKVSGTKGPGGHHHHHH
modifications: Synthetic peptide composition
As to B3, in test [3] (Co-NTA beads, SEM 1000×, 2500×, 5000×), the “Bead coverage by electron microscopy (in words)” value is “bead binding at a lower degree than the other samples”. Besides, the “Particles per um^2 at 5000X” value in test [3] is listed as 0.17 Particles per um^2.

B4: PSSRPTTYHYKNIYQESYQQRNPAVGPEEAAKKEEAAKKPASSRPTTYHYKNIYQESYQQRNPAVGSSGPGSSKQPNKQPNKQPNKQPNKQPNKQPNKQPNKQPNKQPNGPHHHHHH (peptide)
chain: PSSRPTTYHYKNIYQESYQQRNPAVGPEEAAKKEEAAKKPASSRPTTYHYKNIYQESYQQRNPAVGSSGPGSSKQPNKQPNKQPNKQPNKQPNKQPNKQPNKQPNKQPNGPHHHHHH
For the molecule B4, in test [4], the “Delta E*ab Avg” value is given as 10.70 and the “Delta H*ab Avg” value is recorded as 2.93.

B5: PGSGGGGSPYSETPNDQKPNPHYKVSGTKGGGYSETPNDQKPNPHYKVSGTKGGGYSETPNDQKPNPHYKVSGTKGPGGHHHHHH (peptide)
chain: PGSGGGGSPYSETPNDQKPNPHYKVSGTKGGGYSETPNDQKPNPHYKVSGTKGGGYSETPNDQKPNPHYKVSGTKGPGGHHHHHH
modifications: Synthetic peptide composition
Consider B5, for which, in test [3], the “Particles per um^2 at 5000X” value stood at 0.44 Particles per um^2.
